# Patent US20250289878A1, “SURFACE-MODIFIED EXOSOMES AND METHODS OF USE” (The Board of Regents of the University of Oklahoma, priority 2021, published 2025)
# Assays:
# [1] = tested on: B16F10 cells; assay: CCK-8 cell viability / cytotoxicity test; type: cell-based, murine; details: Mus musculus, B16-F10, DOX concentration, 24 hours, read-out: half-maximal inhibitory concentration (IC50)
# Method: Cells (B16F10 and RAW 264.7 cell line) were grown in DMEM containing 10% FBS at 37° C. with 5% CO2. B16F10 and RAW 264.7 cells were seeded on the 96 well tissue culture plates (1×10^4 per well) and cultured for 24 hours. To confirm the biosafety of ASL and AEx, the cells were treated with various concentrations of ASL and AEx and incubated for 24 hours. For the cytotoxicity test, B16F10 cells were given the various concentrations of dAEx, dEx, DOX. In addition to the further competition test, B16F10 cells were incubated with the cyclic RGD (2 μM) for 2 hours and treated with the various concentrations of dAEx. After 24 hours of the treatment, to investigate the cell survival, cells were washed using the fresh PBS twice, and 10% CCK-8 containing DMEM was added to each well and incubated for 1 hour. The absorbance was measured using a microplate reader at 450 nm.
# [2] = tested on: B16F10 tumor; assay: B16F10 murine tumor model, therapeutic efficacy; type: in vivo, mice; details: IV every three days, DOX 5 mg/kg (ASL 2.5 mg/kg), vs untreated control
# Method: B16F10 cells (1×10^6) were directly injected into the flank of 6 weeks old mice. The mice were randomly grouped by six in each and observed until the cancer volume reached ˜50 mm^3. […] The tumor volume was calculated based on the formula: (width^2×length)/2. On day 18, the mice were sacrificed, and organs were harvested for histological analysis. H&E and TUNEL staining were performed using the paraffin-embedded tissues.
# [3] = tested on: cleaved caspase-3 and cleaved PARP of B16F10 cells; assay: Apoptotic activity: cleaved caspase-3 and cleaved PARP by ELISA and western blot; type: cell-based, murine; details: DOX 5 μM, 24 hours
# Method: B16F10 cells were seeded in a 100 mm cell culture dish with cell density at 4.4×10^6 and incubated for 24 hours. After the treatment of various agents with a fixed concentration of DOX (5 μM) for 24 hours, proteins were collected using a cell lysis buffer on ice. Proteins were separated by electrophoresis and transferred to PVDF membranes. Cleaved caspase-3, cleaved PARP, and β-actin (Cell Signaling Technology, Danvers, MA, USA) were used as primary antibodies, and IRDye secondary antibodies (LI-COR Biosciences, Lincoln, NE, USA) were used as secondary antibodies. The protein bands were imaged using the Odyssey CLx (LI-COR Biosciences, Lincoln, NE, USA). The apoptotic activities of dAEx were evaluated by measuring the level of cleaved caspase-3, and cleaved PARP in the protein samples with a cleaved PARP (Cell Signaling Technology, Danvers, MA, USA) and a cleaved caspase-3 (R&D systems, Minneapolis, MN, USA) ELISA kit according to manufacturer's protocol.
smiles,measurement,setting,value
"COc1cccc2c1C(=O)c1c(O)c3c(c(O)c1C2=O)C[C@@](O)(C(=O)CO)C[C@@H]3O[C@H]1C[C@H](N)[C@H](O)[C@H](C)O1 [DOX, Doxorubicin]",IC50,[1],9.85 ± 1.06 µM
same,tumor growth (tumor volume),[2],did not significantly inhibit tumor growth
same,expression of cleaved caspase-3 and cleaved PARP,[3],slight activation
